Source: article PMC11190223, “Identification of sulfakinin receptor regulating feeding behavior and hemolymph trehalose homeostasis in the silkworm, Bombyx mori” (Scientific Reports, 2024)
“Also recorded” adds a separate entry of the source. Where no end group is shown, it is not given here. [ ]: non-standard residue; d: D form. sY = N[C@@H](Cc1ccc(OS(=O)(=O)O)cc1)C(=O)O

Key:
[1] = tested on: BNGR-A9; assay: Fura-2 AM-based Ca^2+ mobilization assay, BNGR-A9; format: cell-based, Bombyx mori; settings: for Effect of Gαq/PLC inhibitor on BmsSK-triggered Ca^2+ mobilization: FR900359 1 μM or U73122 5 μM
Description: (§1) The entire coding region of BNGR-A9 (NM_001134272.1) was obtained by PCR and subsequently cloned into pEGFP-N1 and pCMV-Flag vectors using the primers listed in Table S1. The Flag-BNGR-A9 construct was generated for functional assays, including CRE-luciferase, calcium mobilization, and ERK phosphorylation assays, while BNGR-A9-EGFP was created for receptor visualization purposes. Additionally, for expression in the BmN cell system, the BNGR-A9 gene was inserted into the pIZT/V5-His vector. All constructs were validated by DNA sequencing.
(§2) HEK293 cells were cultured with Dulbecco’s Modified Eagle’s Medium (Gibco, NY, USA) supplied with 10% Fetal bovine serum (Gibco, NY, USA) in a 37 °C humidified incubator containing 5% CO2. BmN cells were maintained in TC 100 insect medium (AppliChem, Darmstadt, Germany) supplied with 10% Fetal bovine serum in a 28 °C incubator. Both HEK293 and BmN cells were transfected with X-tremeGENE (Roche, Mannheim, Germany) according to the manufacturer’s instruction.
To monitor the changes of intracellular calcium, Fura-2 AM (Dojindo, Kumamoto, Japan) was utilized as the calcium indicator, following the methodology outlined in a previous study. Briefly, HEK293 cells stably expressing Flag-BNGR-A9 were exposed to various concentrations of Bombyx mori neuropeptides and measured using a fluorescence spectrometer (Tecan Infinite 200 PRO). Calcium levels were determined by the ratio of fluorescence excitation at 340 nm to that at 380 nm. If necessary, cells were pre-treated with U73122, FR900359, or KT5720 for 30 min prior to the initiation of the experiment. For assays involving BmN cells expressing pIZT-BNGR-A9, the procedures were conducted at 28 °C, and HBSS was replaced with HBM (Hepes-Buffered Medium: 140 mM NaCl, 5 mM KCl, 1 mM MgCl2, 1.2 mM Na2HPO4, 5 mM NaHCO3, 10 mM glucose, and 20 mM HEPES–NaOH, CaCl2 (1 mM), pH 6.2).
(§3) Data analysis was conducted using GraphPad Prism (San Diego, CA), with results presented as mean ± SEM. Statistical significance was assessed through Student’s t-test or two-way ANOVA with multiple comparisons, with p values below 0.05 denoted as significant (*p < 0.05, **p < 0.01, ***p < 0.001). Dose–response curves were generated via non-linear curve fitting. Adobe Photoshop was used to process images, ensuring uniform brightness and contrast settings across all conditions. All images and data provided represent findings from a minimum of three independent experiments.

[2] = tested on: ERK phosphorylation in silkworm brains; assay: ERK phosphorylation (western blot), silkworm larval brains ex vivo; set-up: species or system Bombyx mori; settings: FR900359 1 μM, 30 min; 100 nM BmsSK; silkworm larval brains
Protocol: HEK293 cells with Flag-BNGR-A9 were exposed to 100 nM BmsSK for different durations and then lysed using RIPA buffer (Beyotime, China). For ex vivo assays, brains from 5th instar silkworm larvae were treated with BmsSK (100 nM) for 1, 2, or 8 h, either with a pre-treatment of Gαq inhibitor FR900359 for 30 min or without it. After treatment, samples were lysed, homogenized, and their protein concentrations were determined with a BCA protein kit (Takara, Japan). For western blot analysis, equal amounts of protein lysate were used. Protein expression was analyzed using specific primary antibodies: rabbit monoclonal antibodies for total and phosphorylated ERK from Cell Signaling Technology (MA, USA).

[3] = target: BNGR-A9; assay: CRE-driven luciferase reporter assay, BNGR-A9; format: cell-based, Bombyx mori; settings: for EC50 / Activation of BNGR-A9 (CRE-driven luciferase activity): 4 h, at least three independent experiments; for EC50: dose-response; for Activation of BNGR-A9 (CRE-driven luciferase activity): 1 μM peptide, with or without forskolin (5 μM)
Description: as §1, §2
HEK293 and BmN cells were transfected with the different Bombyx receptors (Flag-BNGR-A9, -A24, -A32, or A33 for HEK293 cells, and pIZT-BNGR-A9, -A24, -A32, or A33 for BmN cells) along with the corresponding CRE-reporter plasmid. When cell confluence reached 90–95%, they were treated with various concentrations of Bombyx mori neuropeptides, with or without forskolin. Following a 4-h incubation period, cells were lysed, and luciferase activities were determined using a firefly luciferase kit (Beyotime, Shanghai, China).
as §3

[4] = tested on: BNGR-A9; assay: IP3 ELISA in BNGR-A9-expressing HEK293 cells; format: cell-based, Bombyx mori; settings: 1 μM, 1 h
Protocol: Figure 6 Bombyx sulfated-sulfakinin mediated activation of BNGR-A9 via Gαq signaling pathway. (A and B) Effects of Gαq inhibitor FR900359 (1 μM) on the CRE-driven luciferase activities in BNGR-A9 expressing HEK293 (A) and BmN (B) cells. BNGR-A9 stable transfected cells were pretreated with FR900359 (1 μM) for 30 min and challenged with 100 nM BmsSK for 4 h. (C) Accumulation of IP3 in HEK293 cells expressing BNGR-A9 in response to Bombyx neuropeptides was assessed. Cells were pre-treated with serum-free DMEM for 1 h, followed by stimulation with 1 μM of the indicated Bombyx neuropeptides for 1 h. The level of IP3 in the supernatant was then determined using the IP3 immunoassay detection kit. (D, E) Effects of Gαq/PLC inhibitors on Flag-BNGR-A9 mediated increase of intracellular Ca^2+ level. Flag-BNGR-A9 expressing HEK293 (D) and BmN (E) cells were pretreated with Gαq inhibitorFR900359 (1 μM), U73122 (5 μM) for 30 min, and incubated with Fura-2 AM for 30 min, followed by challenging with 100 nM BmsSK. (F, G) effects of protein kinase A (PKA) inhibitor KT5720 on BmsSK initiated Ca^2+ in Flag-BNGR-A9-expressing cells. […] After 30 min incubation with Fura-2 AM, the cells were treated with 100 nM BmsSK, and detected with a fluorescence spectrometer. […] Data were analyzed by using a Student’s t-test (*p < 0.05; **p < 0.01). […]

[5] = tested on: BNGR-A9; assay: cAMP ELISA in BNGR-A9-expressing HEK293 cells; format: cell-based, Bombyx mori; settings: 1 μM, 15 min, IBMX pretreatment (300 μM, 1 h)
Protocol: 1. Measurement of cAMP accumulation
Cells were seeded in 24-well plates and incubated overnight. Prior to treatment, cells
were pre-treated with the phosphodiesterase inhibitor IBMX (300 μM) for 1 hour.
Subsequently, cells were treated with different Bombyx neuropeptides for 15 minutes.
The reaction was terminated by removing the medium, followed by the addition of
ice-cold PBS and a single wash. Cell lysis was performed, and cAMP formation was
assessed using a competitive binding technique based on an enzyme-linked
immunosorbent assay (ELISA) (Parameter cAMP assay, R&D, Minneapolis, USA)
following the manufacturer's instructions. The results were expressed as the fold
change in cAMP concentration compared to the control concentration in the
2. Determination of Glucose of hemolymph
Silkworm larvae were anesthetized by cooling on ice, after which hemolymph was
collected using a micropipette from an incision made at the abdominal leg.
Approximately 5 mg of phenylthiourea (to achieve a final concentration of 2.5% w/v)
was added to the hemolymph in a 1.5 ml Eppendorf tube to inhibit clotting.
Hemolymph samples from 10 insects were then centrifuged at 12,000 rpm for 10
minutes at 4 °C to sediment any particulates. The glucose concentration in the
hemolymph was determined using a glucose oxidase-peroxidase kit (Shanghai […]
by stimulation with 1μM BmnsSK or BmsSK for 15 min, and the cAMP level was determined […]

[6] = tested on: DSK-R1 (CCKLR-17D3); settings: cited from earlier work
Description: Insect SKs mediate their effects via G protein-coupled receptors (GPCRs) located on the cell surface membrane. The Drosophila SK receptor (DSK-R1, also known as CCKLR-17D3) emerged as the first cloned and characterized receptor for insect SKs, displaying high affinity for tyrosine-sulfated SK (sSK) and low affinity for nonsulfated SK (nsSK)[21]. Another receptor, CCKLR-17D1, identified in Drosophila, exclusively responds to sSKs, underscoring the critical role of the sulfated tyrosine residue in SKs for receptor interaction and activity. This specificity for sSKs was also observed in the b ...

[7] = target: T1, Flag-BNGR-A9 (Bombyx mori neuropeptide G protein-coupled receptor A9) expressed in HEK293 cells (Bombyx mori) (UniProt B3XXM2)
T1 sequence: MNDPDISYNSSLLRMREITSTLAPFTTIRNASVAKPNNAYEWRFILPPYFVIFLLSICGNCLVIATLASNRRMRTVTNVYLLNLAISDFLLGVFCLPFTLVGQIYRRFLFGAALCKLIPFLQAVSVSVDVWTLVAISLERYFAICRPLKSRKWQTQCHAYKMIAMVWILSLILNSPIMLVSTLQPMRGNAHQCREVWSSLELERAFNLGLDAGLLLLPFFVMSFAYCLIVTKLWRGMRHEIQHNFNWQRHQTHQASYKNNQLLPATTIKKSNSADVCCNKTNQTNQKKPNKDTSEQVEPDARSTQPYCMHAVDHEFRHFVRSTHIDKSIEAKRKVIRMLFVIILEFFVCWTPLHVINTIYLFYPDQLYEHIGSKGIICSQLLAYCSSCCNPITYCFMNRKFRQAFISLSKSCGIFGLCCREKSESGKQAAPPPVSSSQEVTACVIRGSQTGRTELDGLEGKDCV

[8] = target: T2, BNGR-A9 expressed in BmN cells (pIZT-BNGR-A9) (Bombyx mori) (UniProt B3XXM2)
T2 sequence: T1 sequence

[9] = 30 min pretreatment, 100 nM BmsSK, HEK293 and BmN cells
[10] = CRE-driven luciferase, HEK293 and BmN cells

CCCCCCOC(=O)[C@]1(O)C[C@@H]2O[C@@]1(C)n1c3ccccc3c3c4c(c5c6ccccc6n2c5c31)C(=O)NC4 [KT5720, reference compound]
Effect of PKA inhibitor on BmsSK-induced Ca^2+ response ([1]; KT5720 10 μM, 30 min pretreatment, 100 nM BmsSK, HEK293 and BmN cells): did not affect

COc1ccc2c(c1)CC[C@@H]1[C@@H]2CC[C@]2(C)[C@@H](NCCCCCCN3C(=O)C=CC3=O)CC[C@@H]12 [U73122, reference compound]
Effect of Gαq/PLC inhibitor on BmsSK-triggered Ca^2+ mobilization [1, 9]: completely blocked

FR900359 [reference compound]
Effect of inhibitor on BmsSK-induced ERK phosphorylation [2]: inhibited | Effect of Gαq/PLC inhibitor on BmsSK-triggered Ca^2+ mobilization [1, 9]: completely blocked; also recorded: completely inhibited

GDDTFDD^8YGHLRF-NH2 [BmnsSK, Bombyx mori Non-sulfated-sulfakinin, synthetic; nonsulfated version of GDDTFDD^8YGHLRF-NH2]
EC50 ([3]; BmN cells stably expressing BNGR-A9): 0.125 µM | Activation efficacy relative to BmsSK [3, 10]: less than 30% | Agonist type at BNGR-A9 [3, 10]: partial agonist | Activation of BNGR-A9 (CRE-driven luciferase activity) ([3]; HEK293 and BmN cells): could activate BNGR-A9 | EC50 ([3]; HEK293 cells stably expressing BNGR-A9): 0.119 µM | Intracellular IP3 level [4]: significant elevation | Ca^2+ response ([1]; 1 μM peptide, Fura-2 AM, BNGR-A9-expressing HEK293 and BmN cells, three independent experiments): triggered responses in BNGR-A9-expressing cells | Intracellular cAMP level [5]: remained unchanged

neuropeptide F [reference compound]
Activation of BNGR-A9 (CRE-driven luciferase activity) ([3]; HEK293 and BmN cells): did not significantly activate

nsSK: nonsulfated SK, on Drosophila SK receptor (GDDTFDDYGHLRF-NH2)
Affinity for DSK-R1 [6]: low affinity

sSK: tyrosine-sulfated SK, on Drosophila SK receptor (GDDTFDD[sY]GHLRF-NH2; N-terminus assumed; SMILES CC(C)C[C@H](NC(=O)[C@H](Cc1c[nH]cn1)NC(=O)CNC(=O)[C@H](Cc1ccc(OS(=O)(=O)O)cc1)NC(=O)[C@H](CC(=O)O)NC(=O)[C@H](CC(=O)O)NC(=O)[C@H](Cc1ccccc1)NC(=O)[C@@H](NC(=O)[C@H](CC(=O)O)NC(=O)[C@H](CC(=O)O)NC(=O)CN)[C@@H](C)O)C(=O)N[C@@H](CCCNC(=N)N)C(=O)N[C@@H](Cc1ccccc1)C(N)=O)
Affinity for DSK-R1 [6]: high affinity

GDDTFDDYGHLRF-NH2 [Bombyx mori Non-sulfated-sulfakinin]
CRE-driven luciferase reporter, activation efficacy relative to BmsSK, HEK293 cells [7]: < 30 % of BmsSK | CRE-driven luciferase reporter, dose-response, HEK293 cells stably expressing BNGR-A9 [7]: 119 nM | CRE-driven luciferase reporter, activation efficacy relative to BmsSK, BmN cells [8]: < 30 % of BmsSK | CRE-driven luciferase reporter, dose-response, BmN cells stably expressing BNGR-A9 [8]: 125 nM
